We go through four compounds from US20130338165A1 (Promentis Pharmaceuticals, Inc., priority 2012, published 2013).

A short description of data set [1]: pre-pulse inhibition (PPI) model of antipsychotic-like activity. It counts as in vivo. The following applies: orally-active.
A short description of data set [2]: elevated plus maze (EPM) model of anxiolytic-like activity. The following applies: orally-active. It counts as in vivo.
The target in another data set is T1, system xc− (Homo sapiens, UniProt Q9UPY5).
T1 construct: a cell line with high system xc− expression; endogenous in cells; host or cells: 1321N1 human astrocytoma cells
T1 sequence (Q9UPY5 1-501): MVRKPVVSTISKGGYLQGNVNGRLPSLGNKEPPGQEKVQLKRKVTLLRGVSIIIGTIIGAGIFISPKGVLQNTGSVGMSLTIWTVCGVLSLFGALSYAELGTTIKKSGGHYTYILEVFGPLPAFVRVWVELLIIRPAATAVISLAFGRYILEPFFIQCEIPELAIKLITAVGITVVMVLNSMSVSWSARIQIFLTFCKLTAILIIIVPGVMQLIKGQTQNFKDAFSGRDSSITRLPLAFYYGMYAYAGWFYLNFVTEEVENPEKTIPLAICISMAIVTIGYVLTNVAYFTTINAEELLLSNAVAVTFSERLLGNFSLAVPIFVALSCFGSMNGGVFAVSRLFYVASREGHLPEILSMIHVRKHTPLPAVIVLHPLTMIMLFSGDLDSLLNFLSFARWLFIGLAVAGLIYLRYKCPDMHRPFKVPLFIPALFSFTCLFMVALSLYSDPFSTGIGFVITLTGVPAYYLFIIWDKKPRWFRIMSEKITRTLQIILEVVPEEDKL
T1 sequence (P08195 1-529 partner): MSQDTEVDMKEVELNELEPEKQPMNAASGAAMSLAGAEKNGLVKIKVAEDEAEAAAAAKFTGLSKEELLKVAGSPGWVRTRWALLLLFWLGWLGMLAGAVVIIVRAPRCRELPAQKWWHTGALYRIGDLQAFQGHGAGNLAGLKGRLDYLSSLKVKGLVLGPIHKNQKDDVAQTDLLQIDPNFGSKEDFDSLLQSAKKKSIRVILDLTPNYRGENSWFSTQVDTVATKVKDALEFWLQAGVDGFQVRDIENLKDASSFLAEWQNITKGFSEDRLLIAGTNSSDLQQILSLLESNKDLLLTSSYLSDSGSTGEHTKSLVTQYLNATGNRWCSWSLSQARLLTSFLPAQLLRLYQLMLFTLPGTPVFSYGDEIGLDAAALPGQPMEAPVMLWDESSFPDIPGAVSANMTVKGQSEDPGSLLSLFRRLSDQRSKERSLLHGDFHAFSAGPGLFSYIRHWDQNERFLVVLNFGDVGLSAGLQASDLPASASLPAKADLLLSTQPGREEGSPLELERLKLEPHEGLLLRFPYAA
Nature of the data set: in vitro screening assay of system xc− (14C-cystine uptake, 3H-glutamate) in 1321N1 cells. The data set is classed as cell-based. The following applies: human glial cells from brain astrocytoma (1321N1). From the text: Using an in vitro screening assay conducted in human glial cells from brain astrocytoma (1321N1), a cell line with high system xc− expression, the compound with the following formula: […]

For data set [3] the following is noted: intravenous administration, clinical experiments; cited from earlier work.
The conditions of data set [4]: cited from earlier work.
Another data set has as its system brain of gerbils. The following applies: systemic administration; cited from earlier work.
In data set [5] the test system is alpha-synuclein overexpressing mice. The following applies: mouse, in vivo; cited from earlier work.
Another data set relates to brain of rats. The following applies: systemic administration; cited from earlier work.
The next data set has as its system mice treated with MPTP. The following applies: cited from earlier work.
The next data set deals with cells. The following applies: cited from earlier work.

The structures appear in SMILES notation.

Consider `O=C(Cc1ccccc1)N[C@@H](CSC(c1ccccc1)(c1ccccc1)c1ccccc1)C(=O)O`, for which the “behavioral effects in PPI model” value in data set [1] is “significant behavioral effects”. The “behavioral effects in EPM model” value in data set [2] was “significant behavioral effects”. In addition, on system xc−, the “3H-glutamate (glutamate release)” value is “significant elevations”; the “uptake of 14C-cystine” value is “robust and significant decrease”.

Regarding `N[C@@H](CCC(=O)N[C@@H](CS)C(=O)NCC(=O)O)C(=O)O` [glutathione], the “reduction of motor impairment and disability” value in data set [3] was 40%. Also, in data set [4], the solubility characteristics result was “poor”.

As to `CC(=O)N[C@@H](CS)C(=O)O` [NAC, N-acetylcysteine], the “protection against oxidative stress in the brain” value in the data set with brain of gerbils and with brain of rats was “provides protection against oxidative stress” each time. Besides, the “therapeutic potential in alpha-synuclein overexpressing mice” value in data set [5] is on record as “exhibited therapeutic potential”. In the data set with mice treated with MPTP (Aoyama et al., 2008, Perry et al., 1985), the “neuroprotective effect in different MPTP mouse models” value is reported as “partial neuroprotective effect”. The “therapeutic potential in MPTP-treated mice” value in the data set with mice treated with MPTP (mouse, in vivo) was “exhibited therapeutic potential”. In addition, the solubility characteristics result in [4] is recorded as “poor”.

With `CC(=O)N[C@H](CS)C(N)=O`, the “protection of cells from neurotoxicity induced by rotenone” value in the data set on cells is recorded as “protected cells from neurotoxicity”.
